Key:
japanese bulrush = assay: Test Example 3: paddy pot test, application under submerged conditions; assay type: in vivo, Scirpus juncoides; details: active ingredient 250 g/ha; submerged application at 0.5 leaf stage; visually observed 14 days after application; 0 = non-treated, 100 = complete kill
Summary of the method: (§1)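 Barnyardgrass and japanese bulrush sown in flooded paddy soil in greenhouse pots, japanese ribbon wapato tubers planted 1–2 days later; water depth kept at 3–4 cm. Diluted wettable powder or emulsifiable concentrate applied into water at 0.5-leaf or primary-leaf stage at set active-ingredient doses. Growth control scored visually at 14 days, 0 (untreated) to 100% (complete kill).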

green foxtail = assay: Test Example 2: soil surface treatment, upland pot test; assay type: in vivo, Setaria viridis L.; details: active ingredient 500 g/ha, observed 20th to 28th day
From the text: (§2) Upland field soil was put into a 1/170,000 ha pot, and seed of various plants (barnyardgrass, crabgrass, green foxtail, redroot pigweed, prickly sida, velvetleaf, rice, wheat, corn, soybean) were sown. On the 1st day after the sowing, a wettable powder or emulsifiable concentrate having the compound of the present invention formulated in accordance with a usual formulation method, was weighed so that the active ingredient would be a predetermined amount, and diluted with water in an amount of 1,500 L/ha. The herbicide thus adjusted was applied by a small size sprayer for soil surface treatment. On the 20th to 28th days after the application of the herbicide, the growth of the respective plants was visually observed, and the herbicidal effects were evaluated by the growth controlling degrees (%) ranging from 0 (equivalent to the non-treated plot) to 100 (complete kill), whereby the results shown in Table 4, were obtained.

redroot pigweed = assay: as above; assay type: in vivo, Amaranthus retroflexus L.; details: active ingredient 500 g/ha, observed 20th to 28th day
From the text: as §2

prickly sida = assay: as above; assay type: in vivo, Sida spinosa L.; details: active ingredient 500 g/ha, observed 20th to 28th day
From the text: as §2

velvetleaf = assay: as above; assay type: in vivo, Abutilon theophrasti MEDIC.; details: active ingredient 500 g/ha, observed 20th to 28th day
From the text: as §2

soybean = assay: as above; assay type: in vivo, Glycine max Merr.; details: active ingredient 500 g/ha, observed 20th to 28th day
From the text: as §2

corn = assay: as above; assay type: in vivo, Zea mays L.; details: active ingredient 500 g/ha, observed 20th to 28th day
From the text: as §2

barnyardgrass [1] = assay: Test Example 3: paddy pot test, application under submerged conditions; assay type: in vivo, Echinochloa crus-galli L.; details: active ingredient 250 g/ha; submerged application at 0.5 leaf stage; visually observed 14 days after application; 0 = non-treated, 100 = complete kill
Summary of the method: as §1

crabgrass = assay: Test Example 2: soil surface treatment, upland pot test; assay type: in vivo, Digitaria sanguinalis L.; details: active ingredient 500 g/ha, observed 20th to 28th day
From the text: as §2

barnyardgrass [2] = assay: as above; assay type: in vivo, Echinochloa crus-galli L.; details: active ingredient 500 g/ha, observed 20th to 28th day
From the text: as §2

japanese ribbon wapato = assay: Test Example 3: paddy pot test, application under submerged conditions; assay type: in vivo, Sagittaria pygniaea; details: active ingredient 250 g/ha; submerged application at primary leaf stage; visually observed 14 days after application; 0 = non-treated, 100 = complete kill
Summary of the method: as §1

rice = assay: Test Example 2: soil surface treatment, upland pot test; assay type: in vivo, Oryza sativa L.; details: active ingredient 500 g/ha, observed 20th to 28th day
From the text: as §2

rice (var. Nihonbare) = assay: Test Example 3: paddy pot test, transplanted rice; assay type: in vivo, Oryza sativa L.; details: active ingredient 250 g/ha, applied 4th day after transplantation, visually observed 21st day after application, 0 = non-treated, 100 = complete kill
Summary of the method: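 Rice (var. Nihonbare) at 2 leaf stage transplanted 3 cm deep into puddled paddy soil under 3–4 cm flooding; on day 4 after transplanting, diluted wettable powder or emulsifiable concentrate applied by pipette under submerged conditions at a set active-ingredient dose. Growth scored visually 21 days after application, 0 (untreated) to 100 (complete kill) %.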

| Structure (SMILES) | Growth controlling degree (%) Japanese bulrush (japanese bulrush) [%] | Growth controlling degree (%) Green foxtail (green foxtail) [%] | Growth controlling degree (%) Redroot pigweed (redroot pigweed) [%] | Growth controlling degree (%) Prickly sida (prickly sida) [%] | Growth controlling degree (%) Velvetleaf (velvetleaf) [%] | Growth controlling degree (%) Soyabean (soybean) [%] | Growth controlling degree (%) Corn (corn) [%] | Growth controlling degree (%) Barnyardgrass (barnyardgrass [1]) [%] | Growth controlling degree (%) Crabgrass (crabgrass) [%] | Growth controlling degree (%) Barnyardgrass (barnyardgrass [2]) [%] | Growth controlling degree (%) Japanese ribbon wapato (japanese ribbon wapato) [%] | Growth controlling degree (%) Rice (rice) [%] | Growth controlling degree (%) Rice (rice (var. Nihonbare)) [%] |
| --- | --- | --- | --- | --- | --- | --- | --- | --- | --- | --- | --- | --- | --- |
| CC(C)C(c1cnccc1C(F)(F)F)N(C)C(=O)Cc1cc(C(F)(F)F)ccc1F (centres unmarked) [Compound I-96] | 100 | 100 | 80 | 70 | 50 | 20 | 20 | 100 | 85 | 60 | 0 | 10 | 30 |
| CC(C)C(c1cnccc1C(F)(F)F)N(C)C(=O)Cc1cc(F)cc(C(F)(F)F)c1 (centres unmarked) [Compound I-97] | 80 | 100 | 60 | 90 | 40 | 10 | 20 | 100 | 98 | 60 | 0 | 40 | 0 |
| CCN(C(=O)Cc1ccc(F)cc1)C(c1cnccc1C(F)(F)F)C(C)C (centres unmarked) [Compound I-99] | 98 | 100 | 40 | 95 | 40 | 30 | 40 | 100 | 98 | 100 | 90 | 20 | 0 |
| CCN(C(=O)Cc1ccc(Cl)cc1)C(c1cnccc1C(F)(F)F)C(C)C (centres unmarked) [Compound I-100] | 95 | 100 | 10 | 70 | 10 | 0 | 30 | 100 | 98 | 98 | 30 | 30 | 10 |
| CCN(C(=O)Cc1ccccc1)C(c1cnccc1Cl)C(C)C (centres unmarked) [Compound I-102] | 100 | 100 | 20 | 60 | 0 | 20 | 35 | 98 | 98 | 100 | 60 | 10 | 10 |
